Reference: PubChem BioAssay AID1259407 (Chemical Carcinogenesis Research Information System (CCRIS), 2018)
The source made the active and inactive calls. No rule for the calls is given here.

System: CCRIS mutagenicity, Ames/micronucleus/aberration tests
Assay: CCRIS mutagenicity studies
[1] = Test System: AMES SALMONELLA TYPHIMURIUM, Strain/Indicator: TA98, Metabolic Activation: NONE, Method: STANDARD PLATE
[2] = Test System: AMES SALMONELLA TYPHIMURIUM, Strain/Indicator: TA100, Metabolic Activation: NONE, Method: STANDARD PLATE
[3] = Test System: AMES SALMONELLA TYPHIMURIUM, Strain/Indicator: TA102, Metabolic Activation: NONE, Method: STANDARD PLATE

## Oc1cc2c(cc1O)[C@@H]1c3ccc(O)c(O)c3OC[C@]1(O)C2
Test System: AMES SALMONELLA TYPHIMURIUM, Strain/Indicator: TA98, Metabolic Activation: HAMSTER, LIVER, S-9, AROCLOR 1254, Method: PREINCUBATION
  mutagenic call: inactive; negative
Test System: AMES SALMONELLA TYPHIMURIUM, Strain/Indicator: TA98, Metabolic Activation: NONE, Method: PREINCUBATION
  mutagenic call: inactive; negative
Test System: AMES SALMONELLA TYPHIMURIUM, Strain/Indicator: TA98, Metabolic Activation: RAT, LIVER, S-9, AROCLOR 1254, Method: PREINCUBATION
  mutagenic call: inactive; negative
Test System: AMES SALMONELLA TYPHIMURIUM, Strain/Indicator: TA100, Metabolic Activation: HAMSTER, LIVER, S-9, AROCLOR 1254, Method: PREINCUBATION
  mutagenic call: inactive; negative
Test System: AMES SALMONELLA TYPHIMURIUM, Strain/Indicator: TA100, Metabolic Activation: NONE, Method: PREINCUBATION
  mutagenic call: inactive; negative
Test System: AMES SALMONELLA TYPHIMURIUM, Strain/Indicator: TA100, Metabolic Activation: RAT, LIVER, S-9, AROCLOR 1254, Method: PREINCUBATION
  mutagenic call: inactive; negative
Test System: AMES SALMONELLA TYPHIMURIUM, Strain/Indicator: TA1535, Metabolic Activation: HAMSTER, LIVER, S-9, AROCLOR 1254, Method: PREINCUBATION
  mutagenic call: inactive; negative
Test System: AMES SALMONELLA TYPHIMURIUM, Strain/Indicator: TA1535, Metabolic Activation: NONE, Method: PREINCUBATION
  mutagenic call: inactive; negative
Test System: AMES SALMONELLA TYPHIMURIUM, Strain/Indicator: TA1535, Metabolic Activation: RAT, LIVER, S-9, AROCLOR 1254, Method: PREINCUBATION
  mutagenic call: inactive; negative
Test System: AMES SALMONELLA TYPHIMURIUM, Strain/Indicator: TA1537, Metabolic Activation: HAMSTER, LIVER, S-9, AROCLOR 1254, Method: PREINCUBATION
  mutagenic call: inactive; negative
Test System: AMES SALMONELLA TYPHIMURIUM, Strain/Indicator: TA1537, Metabolic Activation: NONE, Method: PREINCUBATION
  mutagenic call: inactive; negative
Test System: AMES SALMONELLA TYPHIMURIUM, Strain/Indicator: TA1537, Metabolic Activation: RAT, LIVER, S-9, AROCLOR 1254, Method: PREINCUBATION
  mutagenic call: inactive; negative

## Cc1ccncc1
Test System: AMES SALMONELLA TYPHIMURIUM, Strain/Indicator: TA97, Metabolic Activation: NONE, Method: STANDARD PLATE
  mutagenic call: inactive; negative
Test System: AMES SALMONELLA TYPHIMURIUM, Strain/Indicator: TA97, Metabolic Activation: RAT, LIVER, S-9, AROCLOR 1254, Method: STANDARD PLATE
  mutagenic call: inactive; negative
[1]
  mutagenic call: inactive; negative
Test System: AMES SALMONELLA TYPHIMURIUM, Strain/Indicator: TA98, Metabolic Activation: RAT, LIVER, S-9, AROCLOR 1254, Method: STANDARD PLATE
  mutagenic call: inactive; negative
[2]
  mutagenic call: inactive; negative
Test System: AMES SALMONELLA TYPHIMURIUM, Strain/Indicator: TA100, Metabolic Activation: RAT, LIVER, S-9, AROCLOR 1254, Method: STANDARD PLATE
  mutagenic call: inactive; negative
[3]
  mutagenic call: inactive; negative
Test System: AMES SALMONELLA TYPHIMURIUM, Strain/Indicator: TA102, Metabolic Activation: RAT, LIVER, S-9, AROCLOR 1254, Method: STANDARD PLATE
  mutagenic call: inactive; negative

## O=c1[nH]cc(CO)c(=O)[nH]1
Test System: CHINESE HAMSTER V-79, Strain/Indicator: V-79 (HPRT)/6-THIOGUANINE, Metabolic Activation: NONE, Method: STANDARD PLATE
  mutagenic call: inactive; negative

## CC(CN(CC(=O)O)CC(=O)O)N(CC(=O)O)CC(=O)O (stereo not given)
Test System: CHINESE HAMSTER V-79, Strain/Indicator: V-79/OUABAIN, Metabolic Activation: NONE, Method: STANDARD PLATE
  mutagenic call: active; positive
Test System: UDS RODENT CELLS, Strain/Indicator: THY INCORP (NON-S-PHASE), Metabolic Activation: NONE, Method: AUTORADIOGRAPHY
  mutagenic call: active; positive

## CC1CCCO1 (stereo not given)
Test System: AMES SALMONELLA TYPHIMURIUM, Strain/Indicator: TA98, Metabolic Activation: HAMSTER LIVER S-9, AROCLOR 1254, Method: STANDARD PLATE
  mutagenic call: inactive; negative
[1]
  mutagenic call: inactive; negative
Test System: AMES SALMONELLA TYPHIMURIUM, Strain/Indicator: TA98, Metabolic Activation: RAT LIVER S-9, AROCLOR 1254, Method: STANDARD PLATE
  mutagenic call: inactive; negative
Test System: AMES SALMONELLA TYPHIMURIUM, Strain/Indicator: TA100, Metabolic Activation: HAMSTER LIVER S-9, AROCLOR 1254, Method: STANDARD PLATE
  mutagenic call: inactive; negative
[2]
  mutagenic call: inactive; negative
Test System: AMES SALMONELLA TYPHIMURIUM, Strain/Indicator: TA100, Metabolic Activation: RAT LIVER S-9, AROCLOR 1254, Method: STANDARD PLATE
  mutagenic call: inactive; negative
Test System: AMES SALMONELLA TYPHIMURIUM, Strain/Indicator: TA102, Metabolic Activation: HAMSTER LIVER S-9, AROCLOR 1254, Method: STANDARD PLATE
  mutagenic call: inactive; negative
[3]
  mutagenic call: inactive; negative
Test System: AMES SALMONELLA TYPHIMURIUM, Strain/Indicator: TA102, Metabolic Activation: RAT LIVER S-9, AROCLOR 1254, Method: STANDARD PLATE
  mutagenic call: inactive; negative
Test System: AMES SALMONELLA TYPHIMURIUM, Strain/Indicator: TA1535, Metabolic Activation: HAMSTER LIVER S-9, AROCLOR 1254, Method: STANDARD PLATE
  mutagenic call: inactive; negative
Test System: AMES SALMONELLA TYPHIMURIUM, Strain/Indicator: TA1535, Metabolic Activation: NONE, Method: STANDARD PLATE
  mutagenic call: inactive; negative
Test System: AMES SALMONELLA TYPHIMURIUM, Strain/Indicator: TA1535, Metabolic Activation: RAT LIVER S-9, AROCLOR 1254, Method: STANDARD PLATE
  mutagenic call: inactive; negative
Test System: AMES SALMONELLA TYPHIMURIUM, Strain/Indicator: TA1537, Metabolic Activation: HAMSTER LIVER S-9, AROCLOR 1254, Method: STANDARD PLATE
  mutagenic call: inactive; negative
Test System: AMES SALMONELLA TYPHIMURIUM, Strain/Indicator: TA1537, Metabolic Activation: NONE, Method: STANDARD PLATE
  mutagenic call: inactive; negative
Test System: AMES SALMONELLA TYPHIMURIUM, Strain/Indicator: TA1537, Metabolic Activation: RAT LIVER S-9, AROCLOR 1254, Method: STANDARD PLATE
  mutagenic call: inactive; negative
Test System: Mouse lymphoma, Strain/Indicator: L5178Y (tk+/tk-), Metabolic Activation: None, Method: Suspension/plate
  mutagenic call: inactive; negative
Test System: Mouse lymphoma, Strain/Indicator: L5178Y (tk+/tk-), Metabolic Activation: Rat, Liver, S-9, Aroclor 1254, Method: Suspension/plate
  mutagenic call: inactive; inconclusive (previous evaluation negative)
